Results as given in ChEMBL document CHEMBL5523680, “Small molecule modulators of cystic fibrosis transmembrane conductance regulator (CFTR): Structure, classification, and mechanisms” (Eur J Med Chem, 2024).
One block for each compound: values may come before it.

Key:
[1] = target: T1, Cystic fibrosis transmembrane conductance regulator (Homo sapiens, UniProt P13569, F508DEL); test: Activation of CFTR F508del mutant (unknown origin)
[2] = target: T2, Cystic fibrosis transmembrane conductance regulator (Homo sapiens, UniProt P13569, N1303K); test: Potentiation of CFTR N1303K mutant (unknown origin) transfected in […] FRT cells in presence of forskolin/VX-770; format: cell-based
T2 sequence (P13569 whole entry N1303K): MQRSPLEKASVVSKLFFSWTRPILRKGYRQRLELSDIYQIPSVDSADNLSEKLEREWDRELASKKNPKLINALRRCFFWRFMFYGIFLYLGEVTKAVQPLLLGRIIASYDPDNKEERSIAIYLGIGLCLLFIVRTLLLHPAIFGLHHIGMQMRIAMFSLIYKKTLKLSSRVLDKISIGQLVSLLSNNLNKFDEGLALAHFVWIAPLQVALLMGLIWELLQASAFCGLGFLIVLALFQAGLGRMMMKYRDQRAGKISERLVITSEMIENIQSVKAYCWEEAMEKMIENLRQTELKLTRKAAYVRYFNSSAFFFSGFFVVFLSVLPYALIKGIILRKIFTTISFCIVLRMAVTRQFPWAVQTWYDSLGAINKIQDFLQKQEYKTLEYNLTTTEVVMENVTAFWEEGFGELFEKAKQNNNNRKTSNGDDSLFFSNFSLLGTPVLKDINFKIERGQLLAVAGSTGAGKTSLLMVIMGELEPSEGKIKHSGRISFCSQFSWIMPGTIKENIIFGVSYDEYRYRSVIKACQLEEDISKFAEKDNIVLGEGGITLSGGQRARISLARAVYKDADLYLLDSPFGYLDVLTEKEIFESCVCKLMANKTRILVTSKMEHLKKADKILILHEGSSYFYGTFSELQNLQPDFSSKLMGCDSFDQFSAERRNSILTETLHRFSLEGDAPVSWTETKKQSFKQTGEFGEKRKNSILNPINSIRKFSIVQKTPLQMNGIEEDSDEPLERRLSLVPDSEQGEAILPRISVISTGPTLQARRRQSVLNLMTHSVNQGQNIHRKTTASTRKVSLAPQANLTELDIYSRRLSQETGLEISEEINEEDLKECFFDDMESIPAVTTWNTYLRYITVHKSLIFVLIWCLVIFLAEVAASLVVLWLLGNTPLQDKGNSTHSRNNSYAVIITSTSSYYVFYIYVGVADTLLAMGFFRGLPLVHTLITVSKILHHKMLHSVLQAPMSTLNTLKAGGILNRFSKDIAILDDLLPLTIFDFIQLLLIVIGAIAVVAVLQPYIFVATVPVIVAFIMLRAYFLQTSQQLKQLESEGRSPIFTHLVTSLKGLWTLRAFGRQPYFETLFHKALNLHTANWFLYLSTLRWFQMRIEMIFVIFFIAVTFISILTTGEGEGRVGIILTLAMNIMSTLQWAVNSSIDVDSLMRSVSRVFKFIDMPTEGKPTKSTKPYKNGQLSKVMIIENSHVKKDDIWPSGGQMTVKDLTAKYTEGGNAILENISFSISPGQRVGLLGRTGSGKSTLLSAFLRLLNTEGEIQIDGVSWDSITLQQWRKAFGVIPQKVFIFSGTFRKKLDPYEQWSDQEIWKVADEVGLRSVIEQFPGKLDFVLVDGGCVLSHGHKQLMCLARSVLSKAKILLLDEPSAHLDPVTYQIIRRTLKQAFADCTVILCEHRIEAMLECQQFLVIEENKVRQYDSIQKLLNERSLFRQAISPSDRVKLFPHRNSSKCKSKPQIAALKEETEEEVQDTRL

[3] = target: Cystic fibrosis transmembrane conductance regulator (Homo sapiens, UniProt P13569, W1282X); test: Potentiation of CFTR W1282X mutant (unknown origin) transfected in […] FRT cells in presence of forskolin/VX-770; format: cell-based
[4] = system: Cystic fibrosis transmembrane conductance regulator (Homo sapiens), P13569 [G551D]; test: Potentiation of CFTR G551D mutant (unknown origin) expressed in FRT cells assessed as increase in chloride current in presence of VX-770 relative to control; format: cell-based; details: filed as activator
Cystic fibrosis transmembrane conductance regulator (Homo sapiens), P13569 [G551D], sequence (P13569 whole entry G551D): as the sequence (P13569 whole entry N1303K) above, with G551D, K1303N counted along it

[5] = target: Cystic fibrosis transmembrane conductance regulator (Homo sapiens, UniProt P13569, G551D); test: Potentiation of CFTR G551D mutant (unknown origin) expressed in FRT cells; format: cell-based
Cystic fibrosis transmembrane conductance regulator (Homo sapiens, UniProt P13569, G551D), sequence (P13569 whole entry G551D): as the sequence (P13569 whole entry N1303K) above, with G551D, K1303N counted along it

[6] = target: T1, Cystic fibrosis transmembrane conductance regulator; test: Potentiation of CFTR F508del mutant (unknown origin) in FRT cells assessed as rescue of CFTR mutant incubated for 24 hrs in presence of VX-770; format: cell-based
[7] = target: T1, Cystic fibrosis transmembrane conductance regulator; test: Potentiation of CFTR F508del mutant (unknown origin) expressed in NIH3T3 cells; format: cell-based
[8] = target: T2, Cystic fibrosis transmembrane conductance regulator; test: Potentiation of CFTR N1303K mutant (unknown origin) expressed in FRT cells assessed as increase in CFTR mutant activity; format: cell-based
[9] = target: T1, Cystic fibrosis transmembrane conductance regulator; test: Corrector activity at […] CFTR F508del mutant (unknown origin) expressed in BHK cells assessed as increase in chloride secretion […]; format: cell-based

T1 sequence (P13569 as listed by the source): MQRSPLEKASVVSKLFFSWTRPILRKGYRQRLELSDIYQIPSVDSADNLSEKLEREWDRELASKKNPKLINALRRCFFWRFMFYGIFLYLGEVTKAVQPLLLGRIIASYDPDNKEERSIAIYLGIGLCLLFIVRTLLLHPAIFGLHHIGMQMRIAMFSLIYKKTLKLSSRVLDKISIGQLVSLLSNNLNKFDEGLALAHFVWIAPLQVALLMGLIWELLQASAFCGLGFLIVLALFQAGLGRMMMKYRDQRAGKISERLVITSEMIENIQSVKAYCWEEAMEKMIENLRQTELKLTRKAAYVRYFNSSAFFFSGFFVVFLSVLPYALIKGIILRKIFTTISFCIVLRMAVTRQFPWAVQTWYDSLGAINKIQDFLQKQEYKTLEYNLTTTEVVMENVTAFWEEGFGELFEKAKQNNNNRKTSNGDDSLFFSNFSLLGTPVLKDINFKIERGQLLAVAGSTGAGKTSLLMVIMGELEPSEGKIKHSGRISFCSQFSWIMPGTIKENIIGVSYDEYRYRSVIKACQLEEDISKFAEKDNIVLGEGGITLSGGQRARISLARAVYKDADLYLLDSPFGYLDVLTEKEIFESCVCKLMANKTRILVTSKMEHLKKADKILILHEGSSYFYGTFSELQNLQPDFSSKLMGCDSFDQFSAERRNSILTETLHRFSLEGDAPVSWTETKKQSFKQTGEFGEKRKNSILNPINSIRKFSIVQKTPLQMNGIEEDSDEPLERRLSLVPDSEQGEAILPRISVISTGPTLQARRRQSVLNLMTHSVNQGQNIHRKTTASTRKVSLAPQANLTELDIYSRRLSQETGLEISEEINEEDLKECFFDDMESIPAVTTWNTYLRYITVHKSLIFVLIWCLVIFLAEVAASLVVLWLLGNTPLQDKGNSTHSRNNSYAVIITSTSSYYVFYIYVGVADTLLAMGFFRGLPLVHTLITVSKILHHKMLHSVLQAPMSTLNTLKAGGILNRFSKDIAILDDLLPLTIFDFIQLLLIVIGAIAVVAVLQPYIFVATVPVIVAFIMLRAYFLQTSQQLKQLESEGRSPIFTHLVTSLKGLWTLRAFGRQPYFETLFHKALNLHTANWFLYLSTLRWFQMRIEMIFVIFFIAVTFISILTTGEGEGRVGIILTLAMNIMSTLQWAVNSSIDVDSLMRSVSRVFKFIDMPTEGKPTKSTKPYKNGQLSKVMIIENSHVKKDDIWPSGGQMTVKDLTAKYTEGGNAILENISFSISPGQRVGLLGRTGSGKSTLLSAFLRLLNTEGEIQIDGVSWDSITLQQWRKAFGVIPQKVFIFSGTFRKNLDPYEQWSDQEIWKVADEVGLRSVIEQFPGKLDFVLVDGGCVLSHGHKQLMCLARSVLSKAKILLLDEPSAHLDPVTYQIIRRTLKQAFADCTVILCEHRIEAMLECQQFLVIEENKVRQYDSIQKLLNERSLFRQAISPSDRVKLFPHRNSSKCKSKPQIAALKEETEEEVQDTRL

SMILES: OC(C1=NC(c2ccc(Br)cc2)NN1)c1ccccc1Br (stereo unspecified)
EC50 [1]: 3 µM

SMILES: O=C(Nc1ccc2cc[nH]c2c1)c1c[nH]c2ccccc2c1=O
EC50 [5]: 0.1 µM

SMILES: COc1ccc(S(=O)(=O)N2CCN(C(C)c3nc(OC4CCCCC4)c4ccccc4n3)CC2)cc1 (stereo unspecified)
EC50 [7]: 3.3 µM

SMILES: CC(C)(CO)c1cc2cc(NC(=O)C3(c4ccc5c(c4)OC(F)(F)O5)CC3)c(F)cc2n1C[C@@H](O)CO [TEZACAFTOR]
EC50 [7]: 1.1 µM

SMILES: O=c1cc(-c2ccc(O)cc2)oc2cc(O)cc(O)c12 [APIGENIN]
EC50 [8]: 10.8 µM

SMILES: O=P(O)(CCP(=O)(O)c1ccccc1)c1ccccc1
EC50 [1]: 1 µM

SMILES: Cc1ccc(S(=O)(=O)Nc2nc3ccccc3nc2C2CCOCC2)cc1
EC50 [1]: 0.93 µM

SMILES: OC(C1=CNNN1c1ccc(Br)cc1)c1ccccc1Br (stereo unspecified)
EC50 [1]: 4.2 µM

SMILES: OC(C1=NC(c2ccc(Br)cc2)NN1)c1ccc(Br)cc1 (stereo unspecified)
EC50 [1]: 2.7 µM

The next lines start with the values.

EC50 [2]: 1.9 µM | EC50 [3]: 1 µM | Activity [4]: 65%
SMILES: CCCCN1CC(S(=O)(=O)Nc2ccc(CC)cc2)c2cccnc21 (stereo unspecified)

EC50 [6]: 0.4 µM
SMILES: Cc1ncccc1CNC(=O)c1ccc2c(c1)CC[C@@H]1C[C@@](O)(CCC(F)(F)F)CC[C@@]21Cc1ccccc1

EC50 [7]: 7 µM | EC50 [9]: 0.081 µM
SMILES: O=C(Nc1ncc(Cc2ccccc2Cl)s1)C(c1ccccc1)c1ccccc1

EC50 [1]: 1.9 µM
SMILES: OCc1cccc(N2C=CN(c3ccccc3)N2)c1
